How the values were obtained:
[1] = tested on: Swiss albino mice; conditions: mouse, in vivo, po, 10 mg/kg
Procedure: (§1) Female Swiss albino mice weighing 32 ± 5 g, were divided into 4 groups (n = 5) and were kept to free access of food and water at controlled environment. […] The dose (10 mg/kg) was administered orally through gavage. […] After 14 days, the blood was withdrawn for serum biochemistry analysis and mice were sacrificed for tissue histology studies[49].

[2] = Biocompatibility, trypan blue assay; assay type: cell-based; conditions: fresh human macrophages isolated from blood
Procedure: The biocompatibility of the NCs and DTX-Ag-NCPs was assessed against the fresh human macrophages. The macrophages were isolated from fresh human blood using Ficoll-Gastrografin gradient method.^6 Macrophages were suspended in RPMI media and incubated in CO2 incubator.

[3] = tested on: Swiss albino mice; conditions: mouse, in vivo
Procedure: After 14 days, the complete blood count (CBC) was performed on blood and plasma was carefully collected and LFTs, RFTs, glucose, total protein and cholesterol were analyzed.

[4] = In vitro DTX release and release model fitting; assay type: physicochemical
Excerpt: Error bar represents Mean ± S.D. of three experiments.
To further probe into the release mechanism, different mathematical models were applied to the dissolution data.

[5] = Oral bioavailability and pharmacokinetics; assay type: in vivo, rabbits; conditions: rabbit
Procedure: All the animal studies were conducted in compliance to the approved protocol of Bio-Ethical Committee of Quaid-i-Azam University Islamabad, Pakistan (Protocol No. BEC-FBS-QAU-20). Oral bioavailability studies of NCs were conducted in rabbits. The rabbits were divided into 3 groups (n=5) and kept in the animal house with free access to food and water. […] The samples (10mg/kg) were orally administered through gavage needle. Blood samples were withdrawn from ear marginal vein of each rabbit at predefined time interval using 1 ml sterile syringe each time. The plasma was separated from blood samples and stored at -20 °C till further used for analysis.^7,8 The drug was extracted from plasma samples and was analyzed using HPLC method described earlier.

[6] = tested on: Swiss albino mice; assay: Acute oral toxicity (OECD 425), observation; conditions: 10 mg/kg, 14 days
Procedure: as §1

[7] = tested on: breast cancer (MDA-MB-231) cell line; assay: Cytotoxic synergism study, MTT assay; conditions: MDA-MB-231, MTT, 24 h
Procedure: The cells were seeded in 96-well plate having 6000 cells/well in fetal bovine serum supplemented Dulbecco’s Modified Eagles Medium (DMEM/FBS) solution. […] Untreated cells with 100% viability were taken as control and the cells without addition of MTT were used as blank to calibrate the instrument. IC50 values for each formulation was calculated using Graphpad Prism 6.02 software[19].

[8] = rabbit, in vivo, cited from earlier work
[9] = model fitted to dissolution data

Question: With CC(=O)O[C@@]12CO[C@@H]1C[C@H](O)[C@@]1(C)C(=O)[C@H](O)C3=C(C)[C@@H](OC(=O)[C@H](O)[C@@H](NC(=O)OC(C)(C)C)c4ccccc4)C[C@@](O)([C@@H](OC(=O)c4ccccc4)[C@H]21)C3(C)C [DTX, Docetaxel] as the molecule, how does the “Visible changes in skin, fur or behavioral pattern” value [1] read?
Answer: Its value is “no visible changes”.

Question: And the viability at 24 h, 50 µg/ml [2]?
Answer: The viability at 24 h, 50 µg/ml was about 65%.

Question: What about the Hb [3] of the same molecule?
Answer: Its Hb is 13.20 ± 6.37.

Question: And the MCH [3]?
Answer: Its MCH is 15.54 ± 4.35.

Question: And the MCV [3]?
Answer: Its MCV is 57.57 ± 5.52.

Question: What about the MPV [3] of the same molecule?
Answer: The MPV was 7.11 ± 4.91.

Question: And the PCV [3]?
Answer: Its PCV is 54.37 ± 11.93.

Question: And the Platelets [3]?
Answer: Its Platelets is 632 ± 87.57.

Question: What about the RBC [3] of the same molecule?
Answer: The RBC was 6.86 ± 4.91.

Question: What about the RDW % [3] of the same molecule?
Answer: The RDW % was 16.92 ± 6.63%.

Question: And the “Serum glutamic pyruvic transaminase (SGPT)” value [3]?
Answer: The value was “highest level”.

Question: And the WBC [3]?
Answer: The WBC was 12.45 ± 7.63.

Question: What about the “Cumulative DTX release” value ([4]; 24 h, phosphate buffer, 37 °C) of the same molecule?
Answer: The value was “about 53%”.

Question: What about the “Higuchi KH” value [4, 9] of the same molecule?
Answer: The value was 10.98.

Question: And the “Hixon-Crowell KHC” value [4, 9]?
Answer: Its value is 0.01.

Question: And the “Korsmeyer-Peppas N (release exponent)” value [4, 9]?
Answer: The value was 0.56.

Question: And the “Zero Order Ko” value [4, 9]?
Answer: The value was 3.06.

Question: And the Cmax ([5]; plasma, 10 mg/kg)?
Answer: Its Cmax is 41.8 ng/mL.

Question: What about the Tmax ([5]; plasma, 10 mg/kg) of the same molecule?
Answer: Its Tmax is 5 h.

Question: And the AUC(0-t) ([5]; plasma, 10 mg/kg, read-out: AUC0–24)?
Answer: The AUC(0-t) was 441 ng·h/mL.

Question: What about the MRT inf ([5]; plasma, 10 mg/kg, read-out: MRT0-inf_obs) of the same molecule?
Answer: The MRT inf was 26.2 h.

Question: What about the AUMC0-inf_obs ([5]; 10 mg/kg) of the same molecule?
Answer: Its AUMC0-inf_obs is 19100.51 ng/ml*h^2.

Question: What about the Cl/F_obs ([5]; 10 mg/kg) of the same molecule?
Answer: The Cl/F_obs was 0.014 (mg)/(ng/ml)/h.

Question: And the t1/2 ([5]; 10 mg/kg, plasma)?
Answer: Its t1/2 is 18.039 h.

Question: What about the “Time plasma level remained above minimum effective concentration / within therapeutic window” value ([5]; MEC 35 ng/mL) of the same molecule?
Answer: Its value is 3 h.

Question: And the half-life ([5]; plasma, po, 10 mg/kg)?
Answer: The half-life was 18 h.

Question: What about the F ([5]; relative to DTX control) of the same molecule?
Answer: Its F is 1.

Question: And the “Mortality and change in body weights” value [6]?
Answer: Its value is “No mortality and significant change in body weights”.

Question: And the IC50 [7]?
Answer: Its IC50 is 14.32 µg/mL.

Question: And the Minimum toxic concentration ([8]; iv)?
Answer: Its Minimum toxic concentration is 2700 ng/mL.

Question: And the Minimum effective concentration [8]?
Answer: The Minimum effective concentration was 35 ng/mL.

From publication PMC6127092, “Polymeric nanocapsules embedded with ultra-small silver nanoclusters for synergistic pharmacology and improved oral delivery of Docetaxel” (Scientific Reports, 2018)
